Assay results as given in US10544134B2, “4-substituted coumarin derivatives and preparation methods and uses thereof” (SI CHUAN UNIVERSITY, priority 2015, dated 2020).
Read-outs that look alike come from different tables or passages of the source.

What was measured:
Test in all cases: Tumor cell proliferation inhibitory activity test in vitro (MTT)
[1] = test system: colon carcinoma cell HCT116; assay type: cell-based, human; conditions: read-out: IC50 of compounds for tumor cells, Activity, HCT116
Source text: (§1) Human non-small cell lung cancer cell line NCI-H460, human small cell lung cancer cell line NCI-H446, human hepatocellular carcinoma cell strain HepG2, human colon carcinoma cell strain HCT116, human prostate cancer PC-3, human melanoma A375, colon carcinoma cell HCT-8, breast cancer cell MCF-7, ovarian cancer cell A2780s, drug-resistant ovarian cancer cell A2780/T, drug-resistant colon cancer cell HCT-8/T and doxorubicin-resistant breast cancer cell MCF-7/ADR are obtained from American Type Culture Collection (ATCC) and are cultured and preserved by the cell bank of State Key Laboratory of Biotherapy of Sichuan University. Above tumor cells are routinely cultured in DMEM culture medium containing 10% fetal bovine serum, 100 U·mL-1 penicillin and 100 mg·L−1 streptomycin, and in an incubator at 37° C. and with saturated humidity and 5% CO2 concentration.
(§2) Fill diluted cell suspension in the 96-well plate with 1000-10000 cells per well and incubate it in CO2 incubator overnight.
(§3) Replace with new medium containing various concentrations of compounds to be tested for the test group and replace with fresh medium with equal volume for the control group, each group is arranged with 5 parallel wells and incubated in an incubator at 37° C. and with 5% CO2 concentration.
(§4) Discard the supernatant after 72 hours, add 200 μL freshly prepared serum-free medium containing 0.2 mg/mL MTT into each well, continue to incubate at 37° C. for 1-4 hours, then stop incubation, carefully remove the culture supernatant in the wells and add 200 uL DMSO (dimethyl sulfoxide), oscillate with a miniature ultrasonic oscillator for 15-20 minutes to make the crystal fully dissolved and mixed. Determine OD values using a microplate reader at 570 nm with a reference wavelength of 450 nm.
(§5) Draw curves based on the growth inhibition rate for tumor cells of the same sample with different concentrations to get dose-response curve, so as to calculate IC50. Repeat each test for 3 times, measure IC50 (μM) or nanomolor concentration (nM) of compounds in different tumor cells.

melanoma A375 = assay type: cell-based, human; conditions: read-out: IC50 of compounds for tumor cells, Activity, A375
Source text: as §1, §2, §3, §4, §5

[2] = test system: non-small cell lung cancer cell line NCI-H460; assay type: cell-based, human; conditions: read-out: IC50 of compounds for tumor cells, Activity, H460
Source text: as §1, §2, §3, §4, §5

[3] = test system: hepatocellular carcinoma cell HEPG2; assay type: cell-based, human; conditions: read-out: IC50 of compounds for tumor cells, Activity, HEPG2
Source text: as §1, §2, §3, §4, §5

prostate cancer PC-3 = assay type: cell-based, human; conditions: 72 hours, read-out: IC50 of compounds for tumor cells, Activity, PC-3
Source text: as §1, §2, §3, §4, §5

breast cancer cell MCF-7 = assay type: cell-based; conditions: read-out: IC50 of compounds for tumor cells, Activity, MCF-7
Source text: as §1, §2, §3, §4, §5

[4] = Homo sapiens, HCT-116, 72 hours
[5] = Homo sapiens, NCI-H460, 72 hours

IC50 [1, 4] [nM] | IC50 (melanoma A375; Homo sapiens, A-375, 72 hours) [nM] | IC50 [2, 5] [nM] | IC50 ([3]; Homo sapiens, HepG2, 72 hours) [nM] | IC50 (prostate cancer PC-3; Homo sapiens) [nM] | IC50 (breast cancer cell MCF-7; Homo sapiens, MCF7, 72 hours) [nM] | IC50 ([1]; 72 hours) [nM] | IC50 (melanoma A375; 72 hours) [nM] | IC50 ([2]; 72 hours) [nM] | IC50 ([3]; 72 hours) [nM] | IC50 (prostate cancer PC-3) [nM] | IC50 (breast cancer cell MCF-7; 72 hours) [nM] | Compound
> 5000 | > 5000 | > 5000 | > 5000 | > 5000 | > 5000 | – | – | – | – | – | – | O=c1cc(-c2ccc(-c3ccc4c(c3)OCO4)s2)c2ccccc2o1 [COUM-31, 4-(5-(3,4-(methylenedioxy)benzene)thiophene-2-yl)-coumarin]
> 5000 | > 5000 | > 5000 | > 5000 | > 5000 | > 5000 | – | – | – | – | – | – | CCOC(=O)c1cccc(-c2ccc(-c3cc(=O)oc4ccccc34)s2)c1 [COUM-32]
> 5000 | > 5000 | > 5000 | > 5000 | > 5000 | > 5000 | – | – | – | – | – | – | COc1cccc(-c2ccc(-c3cc(=O)oc4cc(OC)ccc34)s2)c1 [COUM-33, 4-(5-(3-methoxybenzene)thiophene-2-yl)-7-methoxyl-coumarin]
> 5000 | > 5000 | > 5000 | > 5000 | > 5000 | > 5000 | – | – | – | – | – | – | COc1ccc2c(-c3ccc(-c4ccccc4Cl)s3)cc(=O)oc2c1 [COUM-34, 4-(5-(2-chlorobenzene)thiophene-2-yl)-7-methoxyl-coumarin]
> 5000 | > 5000 | > 5000 | > 5000 | > 5000 | > 5000 | – | – | – | – | – | – | COc1ccc2c(-c3ccc(-c4cccc(Cl)c4)s3)cc(=O)oc2c1 [COUM-35, 4-(5-(3-chlorobenzene)thiophene-2-yl)-7-methoxyl-coumarin]
> 5000 | > 5000 | > 5000 | > 5000 | > 5000 | > 5000 | – | – | – | – | – | – | COc1ccc2c(c1)CCCN2c1cc(=O)oc2ccccc12 [COUM-36, 4-(6-methoxy-3,4-dihydroquinoline-1(2H)-yl) coumarin]
100 to 5000 | 100 to 5000 | 100 to 5000 | 100 to 5000 | 100 to 5000 | 100 to 5000 | – | – | – | – | – | – | COc1ccc2c(c1)CN(c1cc(=O)oc3ccccc13)CCC2 [COUM-37, 4-(8-methoxy-1,3,4,5-tetrahydro-2H-benzoazepine-2-yl) Coumarin]
100 to 5000 | 100 to 5000 | 100 to 5000 | 100 to 5000 | 100 to 5000 | 100 to 5000 | – | – | – | – | – | – | COc1ccc2c(c1)CCCN2c1cc(=O)oc2cc(OC)ccc12 [COUM-38, 4-(6-methoxy-3,4-dihydroquinoline-1(211)-yl)-7 methoxycoumarin]
100 to 5000 | 100 to 5000 | 100 to 5000 | 100 to 5000 | 100 to 5000 | 100 to 5000 | – | – | – | – | – | – | COc1ccc2c(c1)CN(c1cc(=O)oc3cc(OC)ccc13)CCC2 [COUM-39, 4-(8-methoxy-1,3,4,5-tetrahydro-2H-benzoazepine-2-yl)-7-methoxycoumarin]
10 to 100 | 10 to 100 | 10 to 100 | 10 to 100 | 10 to 100 | 10 to 100 | – | – | – | – | – | – | COc1ccc(N(C)c2cc(=O)oc3cc(OC)ccc23)cc1 [COUM-40, 4-(N-methyl-N-(4-methoxybenzene)-amino)-7-methoxycoumarin]
10 to 100 | 10 to 100 | 10 to 100 | 10 to 100 | 10 to 100 | 10 to 100 | – | – | – | – | – | – | CCN(CC)c1ccc2c(N(C)c3ccc(OC)cc3)cc(=O)oc2c1 [COUM-41, 4-(N-methyl-N-(4-methoxybenzene)-amino)-7-diethylaminocoumarin]
10 to 100 | 10 to 100 | 10 to 100 | 10 to 100 | 10 to 100 | 10 to 100 | – | – | – | – | – | – | COc1ccc(N(C)c2cc(=O)oc3ccccc23)cc1 [COUM-43, 4-(N-methyl-N-(4-methoxybenzene)-amino) coumarin]
10 to 100 | 10 to 100 | 10 to 100 | 10 to 100 | 10 to 100 | 10 to 100 | – | – | – | – | – | – | CCOC(=O)COc1cc(N(C)c2cc(=O)oc3ccccc23)ccc1OC [COUM-45, 4-(N-methyl-N-(4-methoxy-3-(2-ethoxy-2-carbonylethoxy)-benzene)-amino) coumarin]
– | – | – | – | – | – | 100 to 5000 | 100 to 5000 | 100 to 5000 | 100 to 5000 | 100 to 5000 | 100 to 5000 | COc1ccc(N(C)c2cc(=O)oc3ccccc23)cc1OCCN1CCOCC1 [COUM-49, 4-(N-methyl-N-(4-methoxy-3-(2-morpholinoethoxy)-benzene)-amino) Coumarin]
– | – | – | – | – | – | 10 to 100 | 10 to 100 | 10 to 100 | 10 to 100 | 10 to 100 | 10 to 100 | COc1ccc(N(C)c2cc(=O)oc3ccccc23)cc1OCCN1CCSCC1 [COUM-50, 4-(N-methyl-N-(4-methoxy-3-(2-thiomorpholinoethoxy)-benzene)-amino) Coumarin]
– | – | – | – | – | – | > 5000 | > 5000 | > 5000 | > 5000 | > 5000 | > 5000 | COc1ccc(N(C)c2cc(=O)oc3ccccc23)cc1OCCN1CCCCC1 [COUM-51, 4-(N-methyl-N-(4-methoxy-3-(2-piperidinoethoxy)-benzene)-amino) Coumarin]
– | – | – | – | – | – | 100 to 5000 | 100 to 5000 | 100 to 5000 | 100 to 5000 | 100 to 5000 | 100 to 5000 | COc1ccc(N(C)c2cc(=O)oc3ccccc23)cc1OS(=O)(=O)Cc1ccc(C)cc1 [COUM-55, 4-(N-methyl-N-(4-methoxy-3-(4-methylbenzene) methanesulfonate-benzene)-amino) Coumarin]
100 to 5000 | 100 to 5000 | 100 to 5000 | 100 to 5000 | 100 to 5000 | 100 to 5000 | – | – | – | – | – | – | COc1ccc(N(C)c2cc(=O)oc3ccccc23)cc1OC(=O)C(CCSC)NC(=O)OC(C)(C)C (stereo not drawn) [COUM-86, 4-(N-methyl-N-(4-methoxy-3-(Boc-methionine)benzene)amino) Coumarin]
> 5000 | > 5000 | > 5000 | > 5000 | > 5000 | > 5000 | – | – | – | – | – | – | COC(=O)CCCCCCCCCCOc1cc(N(C)c2cc(=O)oc3ccccc23)ccc1OC [COUM-94, 4-(N-methyl-N-(4-methoxy-3-(1-methyl ester-decane-oxy)phenyl)-amino) Coumarin]

Compound | IC50 [1, 4] [nM] | IC50 (melanoma A375; Homo sapiens, A-375, 72 hours) [nM] | IC50 [2, 5] [nM] | IC50 ([3]; Homo sapiens, HepG2, 72 hours) [nM] | IC50 (prostate cancer PC-3; Homo sapiens) [nM] | IC50 (breast cancer cell MCF-7; Homo sapiens, MCF7, 72 hours) [nM] | IC50 ([1]; 72 hours) [nM] | IC50 (melanoma A375; 72 hours) [nM] | IC50 ([2]; 72 hours) [nM] | IC50 ([3]; 72 hours) [nM] | IC50 (prostate cancer PC-3) [nM] | IC50 (breast cancer cell MCF-7; 72 hours) [nM]
COc1ccc2c(N(C)c3cc(OC)c(OC)c(OC)c3)cc(=O)oc2c1 [COUM-44] | 10 to 100 | 10 to 100 | 10 to 100 | 10 to 100 | 10 to 100 | 10 to 100 | – | – | – | – | – | –
CCOc1cc(N(C)c2cc(=O)oc3ccccc23)ccc1OC [COUM-58, 4-(N-methyl-N-(4-methoxy-3-ethoxy-benzene)-amino) Coumarin] | – | – | – | – | – | – | > 5000 | > 5000 | > 5000 | > 5000 | > 5000 | > 5000
COc1ccc(N(C)c2cc(=O)oc3ccccc23)cc1OC(=O)CCCl [COUM-60, 4-(N-methyl-N-(4-methoxy-3-(2-chloroethylcarbonyloxy)-benzene)-amino) Coumarin] | – | – | – | – | – | – | 100 to 5000 | 100 to 5000 | 100 to 5000 | 100 to 5000 | 100 to 5000 | 100 to 5000
